± gives the uncertainty stated by the source.
Test: xn = mol fraction of the nth substance listed

Molecule CCCC[n+]1ccccc1.O=S(=O)([N-]S(=O)(=O)C(F)(F)F)C(F)(F)F + Cc1ccccc1 has a viscosity (293.15 K, 100 kPa, x2 = 0.3972) of 22.63 ± 0.48 mPa·s, a viscosity (293.15 K, 100 kPa, x2 = 0.6068) of 10 ± 0.21 mPa·s and a viscosity (298.15 K, 100 kPa, x2 = 0) of 52.9 ± 1.1 mPa·s. It also gave a viscosity (298.15 K, 100 kPa, x2 = 0.5025) of 13.64 ± 0.29 mPa·s, a viscosity (303.15 K, 100 kPa, x2 = 0.2939) of 21.68 ± 0.46 mPa·s and a viscosity (308.15 K, 100 kPa, x2 = 0.3972) of 14.21 ± 0.3 mPa·s. For the same molecule, the viscosity (308.15 K, 100 kPa, x2 = 0.5025) was 10.54 ± 0.22 mPa·s, the viscosity (313.15 K, 100 kPa, x2 = 0.3972) was 12.3 ± 0.26 mPa·s and the viscosity (313.15 K, 100 kPa, x2 = 0.6068) was 6.62 ± 0.14 mPa·s.

In the case of COCCOCCOCCOCCOC + CCCCCC[n+]1ccn(C)c1.O=S(=O)([N-]S(=O)(=O)C(F)(F)F)C(F)(F)F, the viscosity (288.15 K, 100 kPa, x1 = 0.099) is reported as 96 ± 2 mPa·s.

With CCCC[n+]1ccn(C)c1.F[P-](F)(F)(F)(F)F + CC(=O)c1ccccc1 the viscosity (313.15 K, 100 kPa, x2 = 0) was 97 ± 19 mPa·s.

Work on CC#N + CCCCCC[P+](CCCC)(CCCC)CCCC.F[B-](F)(F)F yielded a viscosity (293.15 K, 100 kPa, x2 = 0) of 0.354 ± 0.021 mPa·s, a viscosity (298.15 K, 100 kPa, x2 = 0) of 0.338 ± 0.02 mPa·s and a viscosity (303.15 K, 100 kPa, x2 = 0) of 0.324 ± 0.02 mPa·s. It also gave a viscosity (308.15 K, 100 kPa, x2 = 0) of 0.31 ± 0.019 mPa·s, a viscosity (313.15 K, 100 kPa, x2 = 0) of 0.298 ± 0.018 mPa·s and a viscosity (318.15 K, 100 kPa, x2 = 0) of 0.286 ± 0.017 mPa·s.

With CCCC[n+]1ccn(C)c1.O=S(=O)([N-]S(=O)(=O)C(F)(F)F)C(F)(F)F + CN(C)c1ccccc1 the viscosity (288.15 K, 100 kPa, x2 = 0) was 78.4 ± 3.5 mPa·s, the viscosity (293.15 K, 100 kPa, x2 = 0) was 61.5 ± 2.7 mPa·s and the viscosity (298.15 K, 100 kPa, x2 = 0) was 49.1 ± 2.2 mPa·s. For the same molecule, the viscosity (303.15 K, 100 kPa, x2 = 0) was 39.9 ± 1.8 mPa·s, the viscosity (308.15 K, 100 kPa, x2 = 0) was 33.2 ± 1.5 mPa·s and the viscosity (313.15 K, 100 kPa, x2 = 0) was 27.7 ± 1.2 mPa·s. For the same molecule, the viscosity (318.15 K, 100 kPa, x2 = 0) was 23.5 ± 1 mPa·s, the viscosity (323.15 K, 100 kPa, x2 = 0) was 20.13 ± 0.89 mPa·s and the viscosity (328.15 K, 100 kPa, x2 = 0) was 17.39 ± 0.77 mPa·s. For the same molecule, the viscosity (333.15 K, 100 kPa, x2 = 0) was 15.2 ± 0.67 mPa·s.

CN(C)C=O + CC[n+]1ccn(C)c1.F[B-](F)(F)F gave a viscosity (313.15 K, 101 kPa, x1 = 1) of 0.667 ± 0.009 mPa·s and a viscosity (333.15 K, 101 kPa, x1 = 1) of 0.541 ± 0.007 mPa·s.

— the CheMixHub ionic liquid set
